Like-named read-outs stand apart in the source and are kept apart here.
Columns and labels:
HUVEC = HUVEC proliferation, [3H]-thymidine incorporation assay; type: cell-based, human; details: for Proliferation (IC50/IC50 Itra): HUVEC IC50 relative to itraconazole; for IC50: HUVEC, [3H]-thymidine incorporation, unit inferred, values in μM, read-out: Proliferation IC50
Description: The inhibitory effects of the new analogs on HUVEC proliferation were measured using a [3H]-thymidine incorporation assay. The log P values, used as an indicator of lipophilicity, were calculated using ALOGPS2.1 software. Aqueous solubility is a key physiochemical property relevant for oral absorption. We determined the solubility of each analog in 0.001 N HCl (pH=3), which represents the acidic human gastric fluid.
HUVEC Culture and Proliferation Assays. HUVEC (Lonza) were grown in EGM-2 bullet kit media (Lonza) and used at passage eight or lower. The H thymidine incorporation assays were conducted as previously described. Briefly, cells were seeded on 96-well plate at a concentration of 2000 cells/well and allowed to settle overnight. Drugs were added to each well in triplicate. After 24 hours, cells were treated with 1 μCi of [3H] thymidine for 6 h. Then cells were harvested and transferred to filtermats. The scintillation were counted and IC50 were determined using Prism software (version 6.0).

CYP3A4 = target: T1, CYP3A4 (Homo sapiens, UniProt P08684); test: CYP3A4 enzyme assay (Vivid CYP3A4 Green Screening Kit); type: in vitro ADME; details: for CYP3A4 Inhibition (compared to intracozanole at 1 um): % enzyme inhibition at 1 uM drug / % enzyme inhibition at 1 uM itraconazole; for CYP3A4 inhibition, in words: dose response or compared with itraconazole; for CYP3A4 inhibition at 1 μM, in words: initial screening at 1 μM
T1 construct: purchased ThermoFisher P2857; host or cells: baculosomes (insect-cell microsomes, own knowledge)
T1 sequence (P08684 whole entry): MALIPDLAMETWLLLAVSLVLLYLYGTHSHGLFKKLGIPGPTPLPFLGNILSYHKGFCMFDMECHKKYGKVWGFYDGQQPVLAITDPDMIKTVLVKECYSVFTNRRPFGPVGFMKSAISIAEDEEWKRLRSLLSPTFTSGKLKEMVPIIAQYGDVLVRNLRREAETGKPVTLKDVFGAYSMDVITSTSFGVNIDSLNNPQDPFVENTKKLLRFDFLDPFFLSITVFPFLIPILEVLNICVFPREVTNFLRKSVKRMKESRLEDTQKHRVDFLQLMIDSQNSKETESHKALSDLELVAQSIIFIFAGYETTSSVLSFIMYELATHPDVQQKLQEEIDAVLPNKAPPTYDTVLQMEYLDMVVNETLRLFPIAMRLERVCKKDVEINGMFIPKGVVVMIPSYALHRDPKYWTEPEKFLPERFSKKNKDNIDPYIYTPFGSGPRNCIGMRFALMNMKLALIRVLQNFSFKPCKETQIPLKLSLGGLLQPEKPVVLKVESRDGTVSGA
Description: And CYP3A4 inhibition was initially determined using a cell-free fluorescence-based assay at a final concentration of 1 μM (Table 2).
CYP3A4 enzyme assay. CYP3A4 enzyme activity was tested using Vivid™ CYP3A4 Green Screening Kit (ThermoFisher, #P2857) using the manufacturer's protocol. Briefly, CYP3A4 baculosomes and drugs were incubated 10 min at 37° C. Then Vivid® Substrates were added and the fluorescence (ex/em:485/520) were read every 1 min for 60 minute.

CYP3A4 Inhibition (compared to intracozanole at 1 um) (CYP3A4) | CYP3A4 inhibition, in words (CYP3A4) | CYP3A4 inhibition at 1 μM, in words (CYP3A4) | Structure (SMILES) | Proliferation (IC50/IC50 Itra) (HUVEC) | IC50 (HUVEC; Homo sapiens) | IC50 (HUVEC)
No inhibition | totally lost CYP3A4 inhibition | – | CCC(C)n1ncn(-c2ccc(N3CCN(c4ccc(OC[C@@H]5CO[C@@](CC)(c6ccc(Cl)cc6Cl)O5)cc4)CC3)cc2)c1=O (stereo partly drawn) [Compound 59, 1-sec-butyl-4-(4-(4-(4-(((2R,4R)-2-(2,4-dichlorophenyl)-2-ethyl-1,3-dioxolan-4-yl)methoxy)phenyl)piperazin-1-yl)phenyl)-1H-1,2,4-triazol-5(4H)-one] | 2.1 | – | –
0.20 | – | – | CCC(C)n1ncn(-c2ccc(N3CCN(c4ccc(OC[C@@H]5CO[C@@](CN6CCOCC6)(c6ccc(Cl)cc6Cl)O5)cc4)CC3)cc2)c1=O (stereo partly drawn) [Compound 63, 1-(sec-butyl)-4-(4-(4-(4-(((2S,4R)-2-(2,4-dichlorophenyl)-2-(morpholinomethyl)-1,3-dioxolan-4-yl)methoxy)phenyl)piperazin-1-yl)phenyl)-1H-1,2,4-triazol-5(4H)-one] | 7.4 | – | –
0.07 | – | – | CCC(C)n1ncn(-c2ccc(N3CCN(c4ccc(OC[C@@H]5CO[C@@](Cn6ccnc6C(C)C)(c6ccc(Cl)cc6Cl)O5)cc4)CC3)cc2)c1=O (stereo partly drawn) [Compound 45, 1-sec-butyl-4-(4-(4-(4-(((2S,4R)-2-(2,4-dichlorophenyl)-2-((2-isopropyl-1H-imidazol-1-yl)methyl)-1,3-dioxolan-4-yl)methoxy)phenyl)piperazin-1-yl)phenyl)-1H-1,2,4-triazol-5(4H)-one] | 0.5 | 0.084 µM | –
0.45 | – | – | CCC(C)n1ncn(-c2ccc(N3CCN(c4ccc(OC[C@@H]5CO[C@@](Cn6cc(C)nc6C)(c6ccc(Cl)cc6Cl)O5)cc4)CC3)cc2)c1=O (stereo partly drawn) [Compound 40, 1-(sec-butyl)-4-(4-(4-(4-(((2S,4R)-2-(2,4-dichlorophenyl)-2-((2,4-dimethyl-1H-imidazol-1-yl)methyl)-1,3-dioxolan-4-yl)methoxy)phenyl)piperazin-1-yl)phenyl)-1H-1,2,4-triazol-5(4H)-one] | 3.1 | – | –
0.08 | – | – | CCC(C)n1ncn(-c2ccc(N3CCN(c4ccc(OC[C@@H]5CO[C@@](Cn6nnnc6C)(c6ccc(Cl)cc6Cl)O5)cc4)CC3)cc2)c1=O (stereo partly drawn) [Compound 52, 1-sec-butyl-4-(4-(4-(4-(((2S,4R)-2-(2,4-dichlorophenyl)-2-((5-methyl-1H-tetrazol-1-yl)methyl)-1,3-dioxolan-4-yl)methoxy)phenyl)piperazin-1-yl)phenyl)-1H-1,2,4-triazol-5(4H)-one] | 0.6 | – | –
0.32 | weak inhibition | no CYP3A4 inhibition | CCC(C)n1ncn(-c2ccc(N3CCN(c4ccc(OC[C@@H]5CO[C@@](Cn6nc(C)nc6C)(c6ccc(Cl)cc6Cl)O5)cc4)CC3)cc2)c1=O (stereo partly drawn) [Compound 47, 1-sec-butyl-4-(4-(4-(4-(((2S,4R)-2-(2,4-dichlorophenyl)-2-((3,5-dimethyl-1H-1,2,4-triazol-1-yl)methyl)-1,3-dioxolan-4-yl)methoxy)phenyl)piperazin-1-yl)phenyl)-1H-1,2,4-triazol-5(4H)-one] | 1.3 | 0.22 µM | 0.221 µM
0.27 | – | – | CCC(C)n1ncn(-c2ccc(N3CCN(c4ccc(OC[C@@H]5CO[C@@](Cn6ccnc6-c6ccccc6)(c6ccc(Cl)cc6Cl)O5)cc4)CC3)cc2)c1=O (stereo partly drawn) [Compound 46, 1-sec-butyl-4-(4-(4-(4-(((2S,4R)-2-(2,4-dichlorophenyl)-2-((2-phenyl-1H-imidazol-1-yl)methyl)-1,3-dioxolan-4-yl)methoxy)phenyl)piperazin-1-yl)phenyl)-1H-1,2,4-triazol-5(4H)-one] | 0.8 | – | –
0.36 | reduced potency | – | CCC(C)n1ncn(-c2ccc(N3CCN(c4ccc(OC[C@@H]5CO[C@@](Cn6cnc(C)n6)(c6ccc(Cl)cc6Cl)O5)cc4)CC3)cc2)c1=O (stereo partly drawn) [Compound 50, 1-sec-butyl-4-(4-(4-(4-(((2S,4R)-2-(2,4-dichlorophenyl)-2-((3-methyl-1H-1,2,4-triazol-1-yl)methyl)-1,3-dioxolan-4-yl)methoxy)phenyl)piperazin-1-yl)phenyl)-1H-1,2,4-triazol-5(4H)-one] | 1.6 | – | –
No inhibition | eliminated CYP3A4 inhibition | eliminated | CCC(C)n1ncn(-c2ccc(N3CCN(c4ccc(OC[C@@H]5CO[C@@](Cn6cc(C(F)(F)F)nc6C)(c6ccc(Cl)cc6Cl)O5)cc4)CC3)cc2)c1=O (stereo partly drawn) [Compound 39, 1-(sec-butyl)-4-(4-(4-(4-(((2S,4R)-2-(2,4-dichlorophenyl)-2-((2-methyl-4-(trifluoromethyl)-1H-imidazol-1-yl)methyl)-1,3-dioxolan-4-yl)methoxy)phenyl)piperazin-1-yl)phenyl)-1H-1,2,4-triazol-5(4H)-one] | 2.8 | – | –
0.22 | – | – | CCC(C)n1ncn(-c2ccc(N3CCN(c4ccc(OC[C@@H]5CO[C@@](Cn6nnnc6-c6ccccc6)(c6ccc(Cl)cc6Cl)O5)cc4)CC3)cc2)c1=O (stereo partly drawn) [Compound 53, 1-sec-butyl-4-(4-(4-(4-(((2S,4R)-2-(2,4-dichlorophenyl)-2-((5-phenyl-1H-tetrazol-1-yl)methyl)-1,3-dioxolan-4-yl)methoxy)phenyl)piperazin-1-yl)phenyl)-1H-1,2,4-triazol-5(4H)-one] | 0.7 | – | –
0.08 | – | – | CCc1nccn1C[C@@]1(c2ccc(Cl)cc2Cl)OC[C@@H](COc2ccc(N3CCN(c4ccc(-n5cnn(C(C)CC)c5=O)cc4)CC3)cc2)O1 (stereo partly drawn) [Compound 43, 1-(sec-butyl)-4-(4-(4-(4-(((2S,4R)-2-(2,4-dichlorophenyl)-2-((2-ethyl-1H-imidazol-1-yl)methyl)-1,3-dioxolan-4-yl)methoxy)phenyl)piperazin-1-yl)phenyl)-1H-1,2,4-triazol-5(4H)-one] | 1.4 | – | –
No inhibition | – | – | CCC(C)n1ncn(-c2ccc(N3CCN(c4ccc(OC[C@@H]5CO[C@@](Cn6cccn6)(c6ccc(Cl)cc6Cl)O5)cc4)CC3)cc2)c1=O (stereo partly drawn) [Compound 34, 4-(4-(4-(4-(((2S,4R)-2-((1H-pyrazol-1-yl)methyl)-2-(2,4-dichlorophenyl)-1,3-dioxolan-4-yl)methoxy)phenyl)piperazin-1-yl)phenyl)-1-sec-butyl-1H-1,2,4-triazol-5(4H)-one] | 1.8 | – | –
0.85 | – | – | CCC(C)n1ncn(-c2ccc(N3CCN(c4ccc(OC[C@@H]5CO[C@@](Cn6ccnc6C)(c6ccc(Cl)cc6Cl)O5)cc4)CC3)cc2)c1=O (stereo partly drawn) [Compound 35, 1-sec-butyl-4-(4-(4-(4-(((2S,4R)-2-(2,4-dichlorophenyl)-2-((2-methyl-1H-imidazol-1-yl)methyl)-1,3-dioxolan-4-yl)methoxy)phenyl)piperazin-1-yl)phenyl)-1H-1,2,4-triazol-5(4H)-one] | 1.0 | – | –

Source: US12071430B2 (The Johns Hopkins University, priority 2011, dated 2024)
